Laboratory results reported in ChEMBL document CHEMBL5113512, “β-Nitrostyrene derivatives as broad range potential antifungal agents targeting fungal cell wall” (2022).
In brackets after ≈: the same amount, converted by molar mass. Activity calls are given as the source filed them. The rule behind the calls is not given here.

Legend:
Candida parapsilosis [1] = assay: Synergistic antifungal activity against Candida parapsilosis ATCC 90018 assessed as SDS MIC incubated for 48 hrs by checker board assay; assay type: functional; conditions: Lodderomyces parapsilosis
Candida [2] = assay: Upregulation of CPA1 gene expression in Candida cells; assay type: functional, cell-based
Candida albicans [3] = assay: Upregulation of CaPHO15 gene expression in Candida albicans ATCC 24433 assessed as increase in glycerol content at sub-inhibitory concentration incubated for 2 hrs; assay type: functional
Candida albicans [4] = assay: Antifungal activity against Candida albicans SN152 harboring CAS5 mutant assessed as inhibition of fungal growth by broth microdilution method; assay type: functional
Candida albicans [5] = assay: Synergistic antifungal activity against wild type Candida albicans SN152 assessed as inhibition of fungal growth incubated for 48 hrs in presence of Amphotericin B by checker board assay; assay type: functional
[Candida] auris [6] = Induction of ROS generation in Candida auris CBS10913 assessed as increase in relative fluorescence unit at sub-inhibitory concentration incubated for 1 hr by DCFDA staining-based flow cytometric analysis; assay type: functional, organism-based; conditions: Candidozyma auris
Candida albicans [7] = assay: Synergistic antifungal activity against Candida albicans SN152 harboring CAS5 mutant assessed as inhibition of fungal growth incubated for 48 hrs in presence of Amphotericin B by checker board assay; assay type: functional
Candida albicans [8] = assay: Downregulation of ZCF19 gene expression in Candida albicans ATCC 24433 by qRT-PCR analysis; assay type: functional
Candida albicans [9] = assay: Antifungal activity against wild type Candida albicans SN152 assessed as inhibition of fungal growth by broth microdilution method; assay type: functional
Candida [10] = assay: Downregulation of RBT1 gene expression in Candida cells; assay type: functional, cell-based
Candida parapsilosis [11] = assay: Antifungal activity against Candida parapsilosis ATCC 90018 assessed as inhibition of fungal growth by broth microdilution method; assay type: functional; conditions: Lodderomyces parapsilosis
Candida [12] = assay: Downregulation of CAS5 gene expression in Candida cells; assay type: functional, cell-based
Candida albicans [13] = assay: Synergistic antifungal activity against Candida albicans SN152 harboring CAS5 mutant assessed as fractional inhibitory concentration index incubated for 48 hrs in presence of fluconazole by checker board assay; assay type: functional
Candida [14] = assay: Upregulation of CPA2 gene expression in Candida cells; assay type: functional, cell-based
Candida [15] = assay: Downregulation of CCT3 gene expression in Candida cells; assay type: functional, cell-based
Candida albicans [16] = assay: Synergistic antifungal activity against Candida albicans ATCC 24433 assessed as fractional inhibitory concentration index incubated for 48 hrs in presence of SDS by checker board assay; assay type: functional
Candida [17] = assay: Downregulation of PGA10 gene expression in Candida cells; assay type: functional, cell-based
Candida albicans [18] = assay: Upregulation of NAG4 gene expression in Candida albicans ATCC 24433 by qRT-PCR analysis; assay type: functional
Nakaseomyces glabratus = assay: Antifungal activity against Candida glabrata ATCC 2001 assessed as inhibition of fungal growth by broth microdilution method; assay type: functional
Candida albicans [19] = assay: Synergistic antifungal activity against wild type Candida albicans SN152 assessed as fractional inhibitory concentration index incubated for 48 hrs in presence of Caspofungin by checker board assay; assay type: functional
Candida albicans [20] = assay: Synergistic antifungal activity against Candida albicans SN152 harboring CAS5 mutant assessed as fluconazole MIC incubated for 48 hrs by checker board assay; assay type: functional
Candida albicans [21] = assay: Induction of ROS generation in Candida albicans ATCC 24433 assessed as increase in relative fluorescence unit at sub-inhibitory concentration incubated for 1 hr by DCFDA staining-based flow cytometric analysis; assay type: functional, organism-based
Candida albicans [22] = assay: Antifungal activity against Candida albicans ATCC 24433 overexpressing ADCaMDR1-GFP assessed as inhibition of fungal growth by broth microdilution method; assay type: functional
Candida [23] = assay: Downregulation of RIO2 gene expression in Candida cells; assay type: functional, cell-based
Candida [24] = assay: Downregulation of CDC42 gene expression in Candida cells; assay type: functional, cell-based
Candida [25] = assay: Downregulation of CCT6 gene expression in Candida cells; assay type: functional, cell-based
[Candida] auris [26] = Synergistic antifungal activity against Candida auris CBS10913 assessed as inhibition of fungal growth incubated for 48 hrs in presence of Congo red by checker board assay; assay type: functional; conditions: Candidozyma auris
Candida albicans [27] = assay: Synergistic antifungal activity against Candida albicans ATCC 24433 assessed as fractional inhibitory concentration index incubated for 48 hrs in presence of Calcoflour White by checker board assay; assay type: functional
Candida [28] = assay: Upregulation of ARG4 gene expression in Candida cells; assay type: functional, cell-based
[Candida] auris [29] = Synergistic antifungal activity against Candida auris CBS10913 assessed as Congo red MIC incubated for 48 hrs by checker board assay; assay type: functional; conditions: Candidozyma auris
Cell membrane [30] = assay: Disruption of membrane integrity in Candida auris CBS10913 assessed as cell shrinkage and lysis by measuring leakage of intracellular material measured after 6 hrs by SEM analysis; conditions: Candidozyma auris
Candida albicans [31] = assay: Synergistic antifungal activity against Candida albicans SN152 harboring CAS5 mutant assessed as Caspofungin MIC incubated for 48 hrs by checker board assay; assay type: functional
Candida albicans [32] = assay: Downregulation of ATO5 gene expression in Candida albicans ATCC 24433 by qRT-PCR analysis; assay type: functional
Candida [33] = assay: Upregulation of ARG2 gene expression in Candida cells; assay type: functional, cell-based
Candida parapsilosis [34] = assay: Synergistic antifungal activity against Candida parapsilosis ATCC 90018 assessed as inhibition of fungal growth incubated for 48 hrs in presence of Calcoflour White by checker board assay; assay type: functional; conditions: Lodderomyces parapsilosis
Candida albicans [35] = assay: Synergistic antifungal activity against wild type Candida albicans SN152 assessed as Amphotericin B MIC incubated for 48 hrs by checker board assay; assay type: functional
Candida parapsilosis [36] = assay: Synergistic antifungal activity against Candida parapsilosis ATCC 90018 assessed as fractional inhibitory concentration index incubated for 48 hrs in presence of SDS by checker board assay; assay type: functional
Candida albicans [37] = assay: Antifungal activity against Candida albicans ATCC 24433 assessed as inhibition of fungal growth by broth microdilution method; assay type: functional
Candida [38] = assay: Downregulation of ACF2 gene expression in Candida cells; assay type: functional, cell-based
Candida albicans [39] = assay: Synergistic antifungal activity against Candida albicans ATCC 24433 assessed as inhibition of fungal growth incubated for 48 hrs in presence of Calcoflour White by checker board assay; assay type: functional
Candida parapsilosis [40] = assay: Synergistic antifungal activity against Candida parapsilosis ATCC 90018 assessed as inhibition of fungal growth incubated for 48 hrs in presence of Congo red by checker board assay; assay type: functional; conditions: Lodderomyces parapsilosis
Candida [41] = assay: Downregulation of PRS5 gene expression in Candida cells; assay type: functional, cell-based
Candida parapsilosis [42] = assay: Synergistic antifungal activity against Candida parapsilosis ATCC 90018 assessed as inhibition of fungal growth incubated for 48 hrs in presence of SDS by checker board assay; assay type: functional; conditions: Lodderomyces parapsilosis
Candida albicans [43] = assay: Antifungal activity against Candida albicans ATCC 24433 overexpressing transporter protein GU5 assessed as inhibition of fungal growth by broth microdilution method; assay type: functional
[Candida] auris [44] = Antifungal activity against Candida auris 105 assessed as inhibition of fungal growth by broth microdilution method; assay type: functional; conditions: Candidozyma auris
Candida albicans [45] = assay: Inhibition of drug efflux in Candida albicans ATCC 24433 overexpressing ADCaMDR1-GF assessed as […] in nile red efflux incubated for 30 mins by flow cytometry; assay type: functional
[Candida] auris [46] = Synergistic antifungal activity against Candida auris CBS10913 assessed as fractional inhibitory concentration index incubated for 48 hrs in presence of Calcoflour White by checker board assay; assay type: functional, Candidozyma auris
Candida [47] = assay: Upregulation of PLB5 gene expression in Candida cells; assay type: functional, cell-based
Cell membrane [48] = assay: Disruption of membrane integrity in Candida auris CBS10913 assessed as cell surface perturbations measured after 3 hrs by SEM analysis; assay type: subcellular; conditions: Candidozyma auris

O=[N+]([O-])/C=C/c1ccc(O)cc1
MIC (Candida parapsilosis [1]): 25 µg/mL
Activity (Candida [2]): Active
Activity (Candida albicans [3]): Active
MIC80 (Candida albicans [4]): 2 µg/mL (≈ 12.1 µM)
MIC (Candida albicans [5]): 0.0625 µg/mL
Activity ([Candida] auris [6]): Active
MIC (Candida albicans [7]): 0.0312 µg/mL
Activity (Candida albicans [8]): Active
MIC80 (Candida albicans [9]): 8 µg/mL (≈ 48.4 µM)
Activity (Candida [10]): Active
MIC80 (Candida parapsilosis [11]): 8 µg/mL (≈ 48.4 µM)
Activity (Candida [12]): Active
fractional inhibitory concentration index (FICI) (Candida albicans [13]): 0.126
Activity (Candida [14]): Active
Activity (Candida [15]): Active
fractional inhibitory concentration index (FICI) (Candida albicans [16]): 0.5
Activity (Candida [17]): Active
Activity (Candida albicans [18]): Active
MIC80 (Nakaseomyces glabratus): 8 µg/mL (≈ 48.4 µM)
fractional inhibitory concentration index (FICI) (Candida albicans [19]): 0.257
MIC (Candida albicans [20]): 0.125 µg/mL
Activity (Candida albicans [21]): Active
MIC80 (Candida albicans [22]): 4 µg/mL (≈ 24.2 µM)
Activity (Candida [23]): Active
Activity (Candida [24]): Active
Activity (Candida [25]): Active
MIC ([Candida] auris [26]): 0.125 µg/mL
fractional inhibitory concentration index (FICI) (Candida albicans [27]): 0.25
Activity (Candida [28]): Active
MIC ([Candida] auris [29]): 100 µg/mL
Activity (Cell membrane [30]): Active
MIC (Candida albicans [31]): 0.0078 µg/mL
Activity (Candida albicans [32]): Active
Activity (Candida [33]): Active
MIC (Candida parapsilosis [34]): 0.0078 µg/mL
MIC (Candida albicans [35]): 0.25 µg/mL
fractional inhibitory concentration index (FICI) (Candida parapsilosis [36]): 0.375
MIC80 (Candida albicans [37]): 4 µg/mL (≈ 24.2 µM)
Activity (Candida [38]): Active
MIC (Candida albicans [39]): 0.0078 µg/mL
MIC (Candida parapsilosis [40]): 0.0312 µg/mL
Activity (Candida [41]): Active
MIC (Candida parapsilosis [42]): 1 µg/mL
MIC80 (Candida albicans [43]): 4 µg/mL (≈ 24.2 µM)
MIC80 ([Candida] auris [44]): 2 µg/mL (≈ 12.1 µM)
inhibition (Candida albicans [45]): Active
fractional inhibitory concentration index (FICI) ([Candida] auris [46]): 0.625
Activity (Candida [47]): Active
Activity (Cell membrane [48]): Active
